Results on two compounds are retold here after patent US11713318B2, “Short conjugated oligoelectrolytes and uses thereof” (The Regents Of The University Of California, priority 2018, dated 2023).

The structures appear in SMILES notation. Like-named read-outs stand apart in the source and are kept apart here.

In data set [1] the test system is E. coli K12 (ATCC 47076). The experiment in a line: MIC broth microdilution method, Table 3. The following applies: Escherichia coli, ATCC47076.
For data set [2], the system named is NIH 3T3 (ATCC CRL-1658) cells. Briefly: Cytotoxicity, MTT assay. Format: cell-based. The following applies: Mus musculus, NIH3T3; NIH 3T3; MTT, 24 hours incubation; read-out: IC50. In outline:
(§1)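 Cells seeded at 5000/well (NIH 3T3) or 10000/well (Hep G2, J774, RAW264.7) in DMEM+10% FBS, incubated overnight, then exposed 24 h to 2-fold serial dilutions (9 concentrations, six replicates each). MTT added for 4 h, formazan dissolved in DMSO, A570 read. Viability expressed as blank-corrected absorbance relative to medium-only control.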

Data set [3] concerns J774 (ATCC TIB-67) cells. The experiment in a line: Cytotoxicity, MTT assay. The settings on record: Mus musculus, MTT, 24 hours incubation, read-out: IC50. Format: cell-based. A digest of the protocol:
as §1

A short description of data set [4]: Cytotoxicity, MTT assay. Format: cell-based. The settings on record: at the concentration given as IC50 bound, read-out: cell viability at the highest or lowest test concentration. In outline: as §1
Data set [5] deals with HRPTEpiC. Briefly: Cytotoxicity tested by Eurofins Pharma Discovery Services. The following applies: data provided by Eurofins, read-out: IC50. Format: cell-based.
Experiment in data set [6]: as above
Format: cell-based. The settings on record: human, Hep G2 cells; Hep G2, Eurofins; at the concentration given as IC50 bound; read-out: cell viability at the highest or lowest test concentration.

Experiment in data set [7]: as above
The following applies: Primary Human Hepatocytes, Eurofins; at the concentration given as IC50 bound; read-out: cell viability at the highest or lowest test concentration. Format: cell-based.

Data set [8] deals with S. aureus (MRSA) (clinical isolate). Briefly: MIC panel of pathogens, Table 4. The settings on record: Staphylococcus aureus, clinical isolate from Cottage Hospital. Format: cell-based.
The test system of data set [9] is S. flexneri. The experiment in a line: MIC panel of pathogens, Table 4. Format: cell-based. The following applies: Shigella flexneri. How it is done:
(§2) The minimum inhibitory concentration (MIC) was determined according to the Clinical and Laboratory Standards Institute (CLSI) guidelines by broth dilution. […] MIC values were derived after 20 h incubation, and were the result of at least 6 independent determinations.

Data set [10] deals with E. coli. The experiment in a line: MIC panel of pathogens, Table 4. The following applies: Escherichia coli. Format: cell-based. How it is done:
as §2

Data set [11] deals with RAW264.7 (ATCC TIB-71) cells. Briefly: Cytotoxicity, MTT assay. The following applies: Mus musculus, RAW264.7; RAW 264.7; MTT, 24 hours incubation; read-out: IC50. Format: cell-based, murine. The procedure:
Before removing the frozen cell stocks from liquid nitrogen, culture medium was pre-warmed to 37° C. The frozen tube was then removed from liquid nitrogen and placed into a 37° C. water bath and shaken gently to thaw the cell stock as quickly as possible. A small portion of the pre-warmed culture medium was added to the cell solution. The cell suspension was then centrifuged at 1000 r/min for 3 minutes. The supernatant was discarded and the cells were resuspended in fresh culture medium.
NIH 3T3 (ATCC CRL-1658) and Hep G2 (ATCC HB-8065) cells were cultured with DMEM+10% FBS in 100 mm dishes. Cells were lifted for subculture or testing when confluence reached ˜60% by treating with 1× trypsin (incubated for 3 min at 37° C.). J774 (ATCC TIB-67) cells were cultured with DMEM+10% FBS in 100 mm dishes. Cells were lifted for subculture or testing when confluence reached ˜80% using a cell scraper. RAW264.7 (ATCC TIB-71) cells were cultured with DMEM+10% heat-inactivated FBS+1% pen/strep in T75 flasks. Cells were lifted for subculture or testing when confluence reached ˜80% using a cell scraper.
• 1. Cells were lifted and resuspended in culture medium. The number of cells in the cell suspension was determined using an auto-cell counter: 10 μL of the cell suspension was mixed with 10 μL 1× trypan blue (filtered with 0.2 μm PES filter) and the mixture was loaded onto a cell counting slide. Based on the concentration of viable cells, the cell suspension was further diluted to achieve the desired density. • 2. […] The 96-well plates were analyzed in a plate reader using the following method: shake for 5 minutes, wait for 30 seconds, and measure absorbance at 570 nm. • 8. Data processing: The average of background Abg was calculated from the blank column. […] The average A. and standard deviation Se of each experimental group and the average Ac and standard deviation Sc for control group (with pure culture medium incubation) were then calculated. The cell viability was determined as Ae/Ac×100% and corresponding error as Se/Ae×100%. […]

For data set [12], the system named is S. pneumoniae Daw 1. Briefly: MIC panel of pathogens, Table 4. The following applies: Streptococcus pneumoniae, DAW1. Format: cell-based.
In data set [13] the test system is S. Typhimurium. The experiment in a line: MIC panel of pathogens, Table 4. Format: cell-based. The settings on record: Salmonella enterica.
In data set [14] the test system is K pneumoniae (clinical isolate). Briefly: MIC panel of pathogens, Table 4. Format: cell-based. The following applies: clinical isolate from Cottage Hospital.
Data set [15] concerns S. pneumoniae D39. Briefly: MIC panel of pathogens, Table 4. Format: cell-based. The settings on record: Streptococcus pneumoniae.
The test system of data set [16] is Y. pseudotuberculosis. Briefly: microbe, parasite or virus in culture. Format: cell-based. The settings on record: Yersinia pseudotuberculosis.
The test system of data set [17] is N. gonorrhoeae. Briefly: MIC panel of pathogens, Table 4. Format: cell-based. The settings on record: Neisseria gonorrhoeae.

In data set [1], `C[N+](C)(C)CCCCOc1cc(/C=C/c2ccc(/C=C/c3cc(OCCCC[N+](C)(C)C)cc(OCCCC[N+](C)(C)C)c3)cc2)cc(OCCCC[N+](C)(C)C)c1.[I-].[I-].[I-].[I-]` [Formula F] came in with an MIC of 32 mg/L. In addition, the concentration for half-maximal inhibition (IC50) in data set [2] was above 128 mg/L; in data set [3] it was above 128 mg/L; in [5], 79.2 mg/L. The viability at 24 h in data set [4] (human, Hep G2 (ATCC HB-8065) cells, Hep G2) worked out at 100%; in data set [4] (mouse, J774 (ATCC TIB-67) cells), 51%; in data set [4] (mouse, NIH 3T3 (ATCC CRL-1658) cells, NIH 3T3), 56.2%. In addition, the viability is 70% in data set [6] and 79% in [7].

Turning to `CCCCCC[N+](C)(C)CCCCCCOc1cc(/C=C/c2cc(OCCCCCC[N+](C)(C)CCCCCC)cc(OCCCCCC[N+](C)(C)CCCCCC)c2)cc(OCCCCCC[N+](C)(C)CCCCCC)c1` [Formula E], the MIC is 4 mg/L in data set [1]; 1 mg/L in data set [8]; 2 mg/L in data set [9]; 2 mg/L in data set [10]; 8 mg/L in [12]; 2 mg/L in data set [13]. Besides, the MIC in data set [14] turned out to be 4 mg/L; in [15], 4 mg/L; in data set [16], 1 mg/L; in [17], 0.5 mg/L. Also, the IC50 in data set [2] worked out at 10.4 mg/L; in [3] it was 2.5 mg/L; in data set [5], 2.6 mg/L; in [11], 3.76 mg/L.
